The molecules below were run on hemoglobin in mice (assay: Effect of compounds of Examples on hemoglobin in mice). Details: male C57B1/6 mice, oral 30 mg/kg, 3 times each week for 2 weeks; 6 hours after last administration minus before first administration.
Format: in vivo
Protocol: Male C57B1/6 mice of 8-10 weeks (Shanghai Slack Laboratory Animals Co., Ltd.) were administrated orally the test compounds in 30 mg/kg for 2 weeks, 3 times each week and Roxadustat (CAS: 808118-40-3) was administrated in an amount of 60 mg/kg as a positive control. Before the first administration and 6 hours after the last administration, about 30 μl of blood was taken from the mandibular vein, and the hemoglobin content was measured by Hemocue hemoglobin analyzer. The hemoglobin elevation was calculated as the value obtained by subtracting the first hemoglobin content from the hemoglobin content after the last administration.
In addition, hemoglobin elevation was also tested in the same manner for Roxadustat as a positive control. Roxadustat was purchased from Selleckchem, which was known to be a potent inhibitor of HIF prolyl hydroxylase in the art and be able to increase hemoglobin production.

| Structure (SMILES) | Hemoglobin elevation [g/dL] |
| --- | --- |
| C[C@H](NC(=O)C1=C(O)C2(CCCC2)n2cccc2C1=O)C(=O)O [Example 11, (6′-Hydroxy-8′-oxo-8′H-spiro[cyclopentane-1,5′-indolizine]-7′-carbonyl)-L-alanine] | 2.0 |
| O=C(O)CNC(=O)C1=C(O)C2(CCC2)n2c(ccc2-c2ccccc2)C1=O [Example 39, (6′-Hydroxy-8′-oxo-3′-phenyl-8′H-spiro[cyclobutane-1,5′-indolizine]-7′-carbonyl)glycine] | 4.8 |
| CCOC(=O)[C@H](C)NC(=O)C1=C(O)C2(CCCC2)n2cccc2C1=O [Example 21, (6′-Hydroxy-8′-oxo-8′H-spiro[cyclopentane-1,5′-indolizine]-7′-carbonyl)-L-alanine ethyl ester] | 1.8 |
| C[C@H](NC(=O)C1=C(O)C(C)(C)n2cccc2C1=O)C(=O)O [Example 5, (6-Hydroxy-5,5-dimethyl-8-oxo-5,8-dihydroindolizin-7-carbonyl)-L-alanine] | 1.0 |
| C[C@@H](NC(=O)C1=C(O)C2(CCCC2)n2cccc2C1=O)C(=O)O [Example 12, (6′-Hydroxy-8′-oxo-8′H-spiro[cyclopentane-1,5′-indolizine]-7′-carbonyl)-D-alanine] | 0.8 |
| CC1(C)C(O)=C(C(=O)NCC(=O)O)C(=O)c2cccn21 [Example 4, (6-Hydroxy-5,5-dimethyl-8-oxo-5,8-dihydroindolizin-7-carbonyl) glycine] | 0.8 |
| C[C@H]1CC[C@@]2(CC1)C(O)=C(C(=O)NCC(=O)O)C(=O)c1cccn12 [Example 69, ((1,4-cis)-6′-hydroxy-4-methyl-8′-oxo-8′H-spiro[cyclohexane-1,5′-indolizine]-7′-carbonyl)glycine] | 0.7 |
| C[C@H]1CC[C@]2(CC1)C(O)=C(C(=O)NCC(=O)O)C(=O)c1cccn12 [Example 68, ((1,4-trans)-6′-hydroxy-4-methyl-8′-oxo-8′H-spiro[cyclohexane-1,5′-indolizine]-7′-carbonyl)glycine] | 5.2 |
| O=C(O)CNC(=O)C1=C(O)C2(CCCCC2)n2cccc2C1=O [Example 13, (6′-Hydroxy-8′-oxo-8′H-spiro[cyclohexane-1,5′-indolizine]-7′-carbonyl)glycine] | 4.3 |
| C[C@H](NC(=O)C1=C(O)C2(CC2)n2cccc2C1=O)C(=O)O [Example 2, (6′-Hydroxy-8′-oxo-8′H-spiro[cyclopropane-1,5′-indolizine]-7′-carbonyl)-L-alanine] | 0.6 |
| CCOC(=O)CNC(=O)C1=C(O)C2(CCCC2)n2cccc2C1=O [Example 10, (6′-Hydroxy-8′-oxo-8′H-spiro[cyclopentane-1,5′-indolizine]-7′-carbonyl)glycine ethyl ester] | 1.9 |
| O=C(O)CNC(=O)C1=C(O)C2(CCCCCC2)n2cccc2C1=O [Example 67, (6′-Hydroxy-8′-oxo-8′H-spiro[cycloheptane-1,5′-indolizine]-7′-carbonyl)glycine] | 0.8 |
| O=C(O)CNC(=O)C1=C(O)C2(CCCC2)n2c(ccc2-c2ccccc2)C1=O [Example 24, (6′-Hydroxy-8′-oxo-3′-phenyl-8′H-spiro[cyclopentane-1,5′-indolizine]-7′-carbonyl)glycine] | 4.0 |
| O=C(O)CNC(=O)C1=C(O)C2(CCCC2)n2ccc(C3CC3)c2C1=O [Example 62, (1′-cyclopropyl-6′-hydroxy-8′-oxo-8′H-spiro[cyclopentane-1,5′-indolizine]-7′-carbonyl)glycine] | 0.1 |
| COC(=O)CNC(=O)C1=C(O)C2(CCCC2)n2cccc2C1=O [Example 9, (6′-Hydroxy-8′-oxo-8′H-spiro[cyclopentane-1,5′-indolizine]-7′-carbonyl)glycine methyl ester] | 2.0 |
| O=C(O)CNC(=O)C1=C(O)C2(CCCCC2)n2c(ccc2-c2ccccc2)C1=O [Example 35, (6′-Hydroxy-8′-oxo-3′-phenyl-8′H-spiro[cyclohexane-1,5′-indolizine]-7′-carbonyl)glycine] | 2.5 |
| C[C@H](NC(=O)C1=C(O)C2(CCCCC2)n2cccc2C1=O)C(=O)O [Example 14, (6′-Hydroxy-8′-oxo-8′H-spiro[cyclohexane-1,5′-indolizine]-7′-carbonyl)-L-alanine] | 1.0 |
| O=C(O)CNC(=O)C1=C(O)C2(CC2)n2cccc2C1=O [Example 1, (6′-Hydroxy-8′-oxo-8′H-spiro[cyclopropane-1,5′-indolizine]-7′-carbonyl) glycine] | 1.0 |
| C[C@H](NC(=O)C1=C(O)C2(CCC2)n2cccc2C1=O)C(=O)O [Example 7, (6′-Hydroxy-8′-oxo-8′H-spiro[cyclobutane-1,5′-indolizine]-7′-carbonyl)-L-alanine] | 0.7 |
| O=C(O)CNC(=O)C1=C(O)C2(CCCC2)n2cccc2C1=O [Example 8, (6′-Hydroxy-8′-oxo-8′H-spiro[cyclopentane-1,5′-indolizine]-7′-carbonyl)glycine] | 3.1 |
| O=C(O)CNC(=O)C1=C(O)C2(CCC2)n2cccc2C1=O [Example 6, (6′-Hydroxy-8′-oxo-8′H-spiro[cyclobutane-1,5′-indolizine]-7′-carbonyl)glycine] | 0.9 |

Same assay, conditions: positive control, male C57B1/6 mice, 60 mg/kg, 3 times each week for 2 weeks; 6 hours after last administration minus before first administration

| Structure (SMILES) | Hemoglobin elevation [g/dL] |
| --- | --- |
| Cc1nc(C(=O)NCC(=O)O)c(O)c2ccc(Oc3ccccc3)cc12 [Roxadustat, reference compound] | 1.7 |

These molecules were tested against HIF prolyl hydroxylase-2 (HIF-PHD2) (Homo sapiens (Human), UniProt Q9GZT9) (assay: Effect of compounds on activities of HIF prolyl hydroxylase-2 (hydroxylation of immobilized HIF-1α556-574 peptide, Eu-VBC binding, OD 450 nm)). Details: HIF-PHD2, biotinyl-HIF-1α556-574 substrate; representative, relative values.
Format: biochemical

Sequence of HIF prolyl hydroxylase-2 (HIF-PHD2) (Q9GZT9 whole entry, species assumed): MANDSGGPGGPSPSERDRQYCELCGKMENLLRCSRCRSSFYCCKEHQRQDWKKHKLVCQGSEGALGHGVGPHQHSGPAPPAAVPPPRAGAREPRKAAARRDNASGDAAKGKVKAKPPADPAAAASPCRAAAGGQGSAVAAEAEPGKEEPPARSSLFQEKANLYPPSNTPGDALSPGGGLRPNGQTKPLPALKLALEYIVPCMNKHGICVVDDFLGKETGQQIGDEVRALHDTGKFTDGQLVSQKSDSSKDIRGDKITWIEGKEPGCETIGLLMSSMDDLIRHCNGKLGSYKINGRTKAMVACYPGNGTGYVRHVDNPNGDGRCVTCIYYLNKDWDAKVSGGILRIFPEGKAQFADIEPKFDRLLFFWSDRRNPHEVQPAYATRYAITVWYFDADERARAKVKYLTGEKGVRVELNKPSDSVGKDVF

| Structure (SMILES) | IC50 [µM] |
| --- | --- |
| CCOC(=O)[C@H](C)NC(=O)C1=C(O)C2(CCCC2)n2cccc2C1=O [Example 21, (6′-Hydroxy-8′-oxo-8′H-spiro[cyclopentane-1,5′-indolizine]-7′-carbonyl)-L-alanine ethyl ester] | > 10 |
| CC(C)(C)C(=O)OCOC(=O)CNC(=O)C1=C(O)C2(CCCCC2)n2cccc2C1=O [Example 22, (((6′-hydroxy-8′-oxo-8′H-spiro[cyclohexane-1,5′-indolizine]-7′-carbonyl)glycyloxy)methyl) pivalate] | > 10 |
| CCOC(=O)CNC(=O)C1=C(O)C2(CCCC2)n2cccc2C1=O [Example 10, (6′-Hydroxy-8′-oxo-8′H-spiro[cyclopentane-1,5′-indolizine]-7′-carbonyl)glycine ethyl ester] | > 10 |
| CCOC(=O)CNC(=O)C1=C(O)C2(CCCCC2)n2cccc2C1=O [Example 46, (6′-Hydroxy-8′-oxo-8′H-spiro[cyclohexane-1,5′-indolizine]-7′-carbonyl)glycine ethyl ester] | > 10 |
| COC(=O)CNC(=O)C1=C(O)C2(CCCC2)n2cccc2C1=O [Example 9, (6′-Hydroxy-8′-oxo-8′H-spiro[cyclopentane-1,5′-indolizine]-7′-carbonyl)glycine methyl ester] | > 10 |
